Test results published in patent US20100330172A1, “CONTROLLED-RELEASE PHARMACEUTICAL FORMULATION” (ALPHAPHARM PTY LTD, priority 2007, published 2010).

Columns and labels:
[1] = cited from earlier work
norepinephrine uptake = details: in vitro studies; cited from earlier work
dopamine uptake = details: in vitro studies; cited from earlier work
[2] = in vitro dissolution, USP II apparatus (paddles), 50 rpm, pH 6.8 phosphate buffer; format: physicochemical; details: FIG. 1; similar time points; matrix tablets with Eudragit NE40D
Experimental: FIG. 1 is the in vitro dissolution profiles of embodied formulations of the present invention when measured using a USP II apparatus at 50 rpm in pH 6.8 phosphate buffer.
The resulting in vitro dissolution profiles of these batches as tested using a USP II apparatus (paddles) at 50 rpm in pH 6.8 phosphate buffer are set out in Table 3.

[3] = Desvenlafaxine particle size (MMD); format: physicochemical; details: particle size of desvenlafaxine salt grade
From the text: The “mass mean diameter” or “MMD” refers to the median particle diameter based on mass (i.e. the particle diameter where one half of the mass of particles is contributed by particles with a lesser diameter and one half of the mass of particles is contributed by particles with a greater diameter) and can be measured using various commonly available methods such as measurement using light (eg. light-scattering methods or turbidimetric methods), sedimentation methods (eg. pipette analysis using an Andreassen pipette, sedimentation scales, photo-sedimentometers or sedimentation in a centrifugal force), pulse methods (eg. Coulter counter), or sorting by means of gravitational or centrifugal force.
The particle size of desvenlafaxine utilised in the following formulations are set out in Table 1.

SMILES | change in amount of desvenlafaxine dissolved, coarse to fine [2] | MMD (mass mean diameter) [3] [μm] | other results
CN(C)CC(c1ccc(O)cc1)C1(O)CCCCC1 (racemic) [desvenlafaxine, (+/−)-4-[2-(dimethylamino)-1-(1-hydroxycyclohexyl)ethyl]phenol] | – | – | half-life ([1]; in vivo): about 10 hours; half-life relative to venlafaxine ([1]; times longer than the half-life of venlafaxine): approximately 2.5 times; inhibition of norepinephrine uptake compared with racemic venlafaxine (norepinephrine uptake): more potent inhibitor; inhibition of dopamine uptake compared with racemic venlafaxine (dopamine uptake): more potent inhibitor
CN(C)CC(c1ccc(O)cc1)C1(O)CCCCC1.O=C(O)/C=C/C(=O)O (stereo not shown) [Fine fumarate] | approximately similar increase in the amount of desvenlafaxine dissolved | 21 | –
CN(C)CC(c1ccc(O)cc1)C1(O)CCCCC1.O=C(O)CCC(=O)O (stereo not shown) [Fine succinate] | marked increase in the amount of desvenlafaxine dissolved | 37 | –
CN(C)CC(c1ccc(O)cc1)C1(O)CCCCC1.O=C(O)/C=C/C(=O)O (stereo not shown) [Coarse fumarate] | – | 184 | –
CN(C)CC(c1ccc(O)cc1)C1(O)CCCCC1.O=C(O)CCC(=O)O (stereo not shown) [Coarse succinate] | – | 186 | –
